Data on 91 compounds can be found in a melting point compilation (Tetko et al.; mined from patent text by program, amines drawn as free bases though some values may be those of a salt).

With `CCOC(=O)c1c(N2CCNCC2)c2ccc(C)nc2n(CC)c1=O`, the melting point fell in the range of 137 to 139 °C.
Next, `COc1ccccc1N1CCN(C(=O)Nc2nc3ccccc3nc2OC)CC1`: 177 to 178 °C; `CSc1noc(-c2ccc(OCCOc3ccccc3)cc2)c1C#N`: 128 to 131 °C; `Clc1ccc2nc(Cl)cn2c1`: 155 to 156 °C.
On to `CCc1ccc(C(C)(C)C)c(O)c1C(=O)Nc1ccc(S(=O)(=O)C(F)(F)F)cc1Cl`, for which the melting point was 126 to 127 °C.
The same measure for `CC(C)c1cc(C(C)C)c(CC(=O)NS(=O)(=O)Oc2c(C(C)C)cc(C#N)cc2C(C)C)c(C(C)C)c1`: 79 to 84 °C; for `CC(C)(C)c1ccccc1N1CCN(C(=O)c2ccccc2)CC1`: 104 to 106 °C; for `CONC(=O)c1cc2c(Sc3ccc(C)cc3)cncc2s1`: 200 to 203 °C.
Next, `COc1cc(CCN2CCN(C)CC2)cc(OC)c1-c1ccc(C[C@H](NC(=O)c2c(Cl)cccc2Cl)C(=O)O)cc1`: 179 °C.
Next, `Cc1nnc(SCC(=O)C23CC4CC(CC(C4)C2)C3)n1C`: 113 to 114 °C; `COc1ccccc1NC(=O)Nc1nc(Cl)nc(N(CCC(=O)O)Cc2cccc(C)c2)n1`: 205 °C.
With `CCCCCCCCC(=O)Nc1cccc([N+](=O)[O-])c1`, the melting point lay in the range of 63 to 63.5 °C.
The same measure for `C[C@@H]1CN(c2nccc(Oc3ccc(NC(=O)c4cc(F)cc(N5CCCCC5)c4)c4ccccc34)n2)C[C@H](C)O1`: 174 to 176 °C; for `Cc1cc2nc(Cl)c(Cl)nc2c(N)c1C`: 178 to 180 °C; for `CNC(=O)c1cccc(NC(=O)Cc2cccc3ccccc23)c1`: 201 to 202 °C.
The same measure for `COc1ccc(C(O)=C(C#N)C(=O)C(C)(C)C)c([N+](=O)[O-])c1`: 85 to 88 °C; for `Cc1cc(/C=C/C(c2cc(Cl)cc(Cl)c2)C(F)(F)F)ccc1C(=O)O` (stereo unspecified): 142 to 143 °C; for `CCCc1[nH]c2cc(C(N)=O)ccc2c1C(=O)COC`: 165 to 167 °C.
Next, `O=C1C=CC(=O)N1CCN1C(=O)C=CC1=O`: 193 to 194 °C; `Cc1cc(Cl)cc(NC(=O)C=NO)c1`: 206 to 207 °C; `COc1c(Cl)ccc(-c2nc(C(=O)OCc3ccc(OC(F)(F)F)cc3)c(Cl)c(N)c2F)c1F`: 155 to 156 °C.
As for `COC(=O)C1=NN(c2ccccc2)C(C(=O)OC)=NN1c1ccccc1`, the melting point was 171 to 172 °C.
The compound `Cc1nc(N2CCN(Cc3ccc(F)cc3)C2=O)sc1C(=O)NCc1cccnc1` showed a melting point of 177 to 179 °C.
The same measure for `COc1ccc2c(c1)CCN(CCc1ccc(NC(=O)c3cccc4c(=O)c5cccc(OC)c5[nH]c34)cc1)C2`: 260 °C; for `CCCCCCCCCCCCCc1nc(N)no1`: 90 to 91 °C; for `CC#CC1(O)CCC2C3CCC4=CC(=O)CCC4C3CCC21CC` (stereo unspecified): 124 to 125 °C.
The compound `Cc1c(NC(=O)c2ccc(OCC3CC3)cc2)ccc2cc(CN3CCC(C)(O)CC3)[nH]c12` had a melting point of 195 °C.
With `N#Cc1ccc2c(c1)CCC=C2c1cncs1`, the melting point is 78 to 79 °C.
With `O=C1CCC(c2ccc(-c3ccccc3Cl)o2)O1` (stereo unspecified), the melting point was 101 to 103 °C.
The same measure for `CCn1c(=O)c2c(-c3nc(C)no3)ncn2c2cccnc21`: 251 to 252 °C; for `CCOc1nc(C(F)(F)F)cc(=O)n1-c1cc(OC(C)C)c(Cl)cc1F`: 101 to 103 °C.
Next, `COc1cc(C(=O)c2ccccc2Cl)cc([N+](=O)[O-])c1O`: 129 to 131 °C; `CN(C(=O)CCS)c1nnc(-c2cccnc2)s1`: 149 to 151 °C.
Next, `COC(=O)C1=C(C)NC(C)=C(C(=O)OCCc2ccc(OCC(O)CO)cc2)C1c1cccc([N+](=O)[O-])c1` (stereo unspecified): 117 to 118 °C; `Cc1c(Sc2cccnc2)sc2ccc(C(=O)O)cc12`: 220 to 222 °C; `CCCCN=C1c2ccccc2CCc2c1nc1c(cnn1CC)c2NCCCC`: 124 to 125 °C.
`COc1cc(C)nc(C(=O)O)n1` came in with a melting point of 140 to 141 °C.
With `C#CCCOc1cc(C=O)ccc1OC`, the melting point is 63 to 65 °C.
`CCOC(=O)c1ncn2c3cccc(Br)c3c(=O)n(C)c12` gave a melting point of 272 °C.
Consider `OCCSC1=NN(SCCO)CS1`, for which the melting point worked out at 80 °C.
`O=C(O)/C=C/c1ccc(C(=O)NC2CCCCC2)cc1`: the melting point turned out to be 214 °C.
In turn, `O=C(O)c1ccc(CCCOCCCCCCBr)s1` had a melting point of 93 to 95 °C.
Compound `O=C(C(=O)c1ccc(C#Cc2ccccc2)cc1)c1ccc(C#Cc2ccccc2)cc1` returned a melting point of 168 to 170 °C.
The same measure for `CCCc1nc2c(N)nc(C)c(C)c2n1CCCS(=O)(=O)c1ccc(C(=O)OCC)cc1`: 169 to 171 °C.
The same measure for `COc1cc(-c2oc3c(OC)cc(/C=C/C=O)cc3c2C)ccc1O`: 169 to 170 °C; for `O=C1NCCN1c1ccc(S(=O)(=O)Nc2ccc3c(c2)OCO3)cc1`: 219 to 220 °C; for `CCOC(=O)C1(C)C(=O)Nc2cc3[nH]c(-c4ccccc4)nc3cc21` (stereo unspecified): 178 to 182 °C.
With `OCc1nccc(N2CCCCC2)n1`, the melting point lay within 92 to 93 °C.
The same measure for `COC(=O)Cc1ccc(CNC(=O)C2Cc3ccccc3N2S(=O)(=O)c2ccc(-c3ccc(F)cc3OC)cc2)cc1` (stereo unspecified): 77 to 79 °C; for `COc1ccccc1Oc1c(Cl)nc(N2CCOCC2)nc1NS(=O)(=O)c1ccc(C(C)C)cn1`: 168 to 176 °C.
The same measure for `Nc1cc(O)cc2cc(-c3ccc(O)cc3)oc12`: 251 to 254 °C.
The same measure for `CSc1sc(-c2cccnc2)c2c1-c1oncc1C(C)(C)C2`: 123 to 125 °C; for `Cc1ccncc1-c1cc2ccncc2c(N)n1`: 280 to 282 °C; for `Cc1[nH]c(=O)[nH]c1C(=O)c1ccccc1`: 250 to 254 °C.
`COc1cc2c(cc1OCc1ccccc1)CCN(Cc1ccccc1)C2` displayed a melting point of 97 to 98 °C.
Next, `CC1(CC(=O)O)CCCC1=O` (stereo unspecified): 70 to 72 °C; `CC(=O)n1nc(C(N)=O)c2ccccc21`: 165 to 171 °C; `N#CCOc1ccc2occ(CC#N)c2c1`: 86 to 87 °C.
`NCC=Cc1ccc(NC(=O)c2ccccc2-c2ccc(C(F)(F)F)cc2)cc1` registered a melting point of 190 °C.
With `Nc1nc(NCCN2CCOCC2)nc2nc(-c3ccco3)nn12`, the melting point lay within 242 to 244 °C.
Next, `COc1nc(C)nc(NC(=O)NS(=O)(=O)c2cc(OC(F)F)ccc2OC(F)F)n1`: 113 °C; `COn1c(-c2ccccc2)nc2ccc(Cn3ccnc3)cc21`: 142 °C; `CCCCCCNc1ccncc1`: 68 to 70 °C.
Regarding `O=C1c2ccccc2C(=O)N1CCCCCCc1cnc2ccccc2c1`, the melting point fell in the range of 90 to 91 °C.
On to `COc1cc2[nH]c(SCc3nccc(OC)c3OC)nc2cc1OC(F)F`, for which the melting point lay in the range of 137 to 138 °C.
The same measure for `Cc1c(N2CC3(CC3)[C@](C)(N)C2)ccc2c(=O)c(C(=O)O)cn([C@@H]3C[C@@H]3F)c12`: 157 to 159 °C.
Turning to `Cc1cc(C(=O)N2CCCCC2)ccc1[N+](=O)[O-]`, the melting point was in the range of 71.7 to 72.2 °C.
Compound `Cc1ccc(S(=O)(=O)NC(=O)OCCc2ccc(-n3c(CCCc4ccccc4)nc4c(C)nc(C)cc43)cc2)cc1` gave a melting point of 175 °C.
Regarding `CCOCc1nc2c(N)nc3cc(-c4cncc(CO)c4)cnc3c2n1CC(C)(C)O`, the melting point was in the range of 212 to 214 °C.
As for `CC(C)(C)OC(=O)N1CCN(C(=O)Oc2ccc(Oc3ccc(C(F)(F)F)cn3)cc2)CC1`, the melting point was 165 to 166 °C.
On to `O=C(NCc1ccccc1)c1cc([N+](=O)[O-])ccc1N[C@H]1CC[C@H](O)CC1`, for which the melting point is 233 to 234 °C.
`CCOC(=O)Cc1c2n(c3ccc(F)cc13)C(c1ccc(SC)cc1)=NCC2` came in with a melting point of 119 to 120 °C.
Take `Cc1ccc(N2C(=O)c3ccccc3C2=O)nn1`: the melting point was determined as 214 °C.
The same measure for `CCCCOc1cccc2oc(-c3ccccc3)cc(=O)c12`: 96 to 97 °C.
The same measure for `CCC(=O)Nc1ccc(C(=O)NCCN(CC)CC)c(OC)c1`: 137 °C; for `Cc1cc(C)c(C(C)(C)O)c(C)c1`: 106 to 107 °C.
Regarding `Cc1cccc(NC(=O)NCC(=O)N(CC(=O)O)c2ccccc2)c1`, the melting point was 188 °C.
The same measure for `CN(C)C(=S)SC(C[N+](=O)[O-])c1ccccc1` (stereo unspecified): 105 to 106 °C.
On to `COCOc1cc(CCCOc2nn(Cc3ccccc3)cc2CC(=O)O)n(Cc2ccc(Cl)cc2Cl)n1`, for which the melting point was 89.5 to 91.5 °C.
The same measure for `Cn1nc(-c2cc(C(=O)O)c(Cl)cc2F)c(Cl)c1OC(F)F`: 137 to 140 °C; for `CC1(C)CON(Cc2ccc(Nc3cc4ccccc4c(=O)o3)cc2)C1=O`: 175 to 177 °C.
`Cc1ccc(-c2nc3ccccc3s2)nc1` yielded a melting point of 170 °C.
Next, `CN(C(=O)OC(C)(C)C)c1cc(Oc2ccc(C34CC5CC(CC(C5)C3)C4)cc2)ccc1N`: 85 to 90 °C; `COc1cc2ncnc(N3CCC(NCc4ccccn4)CC3)c2cc1OC`: 151 to 155 °C.
Consider `N#CCCCCCCCCNS(=O)(=O)c1cccc(Cl)c1`, for which the melting point lay within 42 to 43 °C.
The same measure for `O=C(O)/C=C/n1cnc2ccccc2c1=O`: 250 to 254 °C; for `Cc1cccc(C)c1OCC(=O)NC(Cc1ccccc1)C(O)CC(N)Cc1ccccc1` (stereo unspecified): 131 °C; for `CCOC(=O)c1nc(-c2ccccc2)c(-c2ccc(=O)n(C(C)C)n2)s1`: 153 to 154 °C.
As to `C[C@H](CSC(=O)c1ccccc1)C(=O)O`, the melting point fell in the range of 63 to 65 °C.
The same measure for `N=C(NCC(F)(F)F)NC(N)=S`: 164 to 166 °C.
The same measure for `CCc1nc(O)c2c(n1)c(C)nn2CC`: 192 to 194 °C.

The melting point is the temperature, or range, at which the solid turns liquid.
